Results published in ChEMBL document CHEMBL1909046, “DrugMatrix in vitro pharmacology data”.

Key:
[1] = biological target: Beta-3 adrenergic receptor (Homo sapiens, UniProt P13945); assay: DRUGMATRIX: Adrenergic beta3 radioligand binding (ligand: [125I] Cyanopindolol); type: cell membranes, HEK293, Membrane; conditions: hek293; Not Active = under 50% inhibition at 10 µM
Calcitonin receptor = biological target: T1, Calcitonin receptor (Homo sapiens, UniProt P30988); type: cell membranes, Membrane; conditions: t47d; also: in other assays of this panel Not Active means under 50% inhibition at 10 µM
T1 sequence (P30988 whole entry): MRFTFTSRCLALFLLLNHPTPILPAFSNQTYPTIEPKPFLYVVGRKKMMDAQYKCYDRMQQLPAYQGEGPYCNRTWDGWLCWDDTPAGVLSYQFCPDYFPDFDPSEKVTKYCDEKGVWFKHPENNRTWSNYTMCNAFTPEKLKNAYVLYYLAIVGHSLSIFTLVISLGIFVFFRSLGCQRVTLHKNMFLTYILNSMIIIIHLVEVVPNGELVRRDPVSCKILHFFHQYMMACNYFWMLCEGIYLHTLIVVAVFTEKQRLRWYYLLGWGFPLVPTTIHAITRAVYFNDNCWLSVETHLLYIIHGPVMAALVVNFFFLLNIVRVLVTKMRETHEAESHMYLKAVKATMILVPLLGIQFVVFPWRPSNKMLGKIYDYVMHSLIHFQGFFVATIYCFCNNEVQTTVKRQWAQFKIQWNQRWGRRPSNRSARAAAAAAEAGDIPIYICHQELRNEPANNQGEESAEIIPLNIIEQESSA

Thromboxane-A synthase = biological target: T2, Thromboxane-A synthase (Homo sapiens, UniProt P24557); assay: biochemical; type: tissue-based, Platelet; conditions: platelet;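 also: enzyme inhibition assay with PGH2 supplied as substrate; in other assays of this panel Not Active means under 50% inhibition at 10 µM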
T2 sequence (P24557 whole entry): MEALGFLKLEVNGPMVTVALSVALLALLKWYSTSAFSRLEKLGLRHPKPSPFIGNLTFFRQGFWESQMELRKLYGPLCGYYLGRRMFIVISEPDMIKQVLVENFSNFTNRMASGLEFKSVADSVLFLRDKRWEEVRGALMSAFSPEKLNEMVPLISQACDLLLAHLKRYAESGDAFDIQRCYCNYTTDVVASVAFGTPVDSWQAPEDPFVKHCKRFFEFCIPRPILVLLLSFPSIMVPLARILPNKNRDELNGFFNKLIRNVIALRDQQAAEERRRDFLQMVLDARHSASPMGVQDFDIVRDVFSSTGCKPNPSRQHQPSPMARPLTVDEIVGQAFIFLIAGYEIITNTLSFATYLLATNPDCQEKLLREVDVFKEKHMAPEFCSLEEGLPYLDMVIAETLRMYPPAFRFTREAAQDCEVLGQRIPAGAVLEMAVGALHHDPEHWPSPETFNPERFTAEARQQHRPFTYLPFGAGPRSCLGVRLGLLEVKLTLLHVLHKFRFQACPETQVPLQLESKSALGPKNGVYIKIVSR

Nitric oxide synthase 1 = Nitric oxide synthase 1 (Rattus norvegicus, UniProt P29476); type: tissue-based, Cerebellum; also: in other assays of this panel Not Active means under 50% inhibition at 10 µM
Chain of Nitric oxide synthase 1 (P29476 whole entry): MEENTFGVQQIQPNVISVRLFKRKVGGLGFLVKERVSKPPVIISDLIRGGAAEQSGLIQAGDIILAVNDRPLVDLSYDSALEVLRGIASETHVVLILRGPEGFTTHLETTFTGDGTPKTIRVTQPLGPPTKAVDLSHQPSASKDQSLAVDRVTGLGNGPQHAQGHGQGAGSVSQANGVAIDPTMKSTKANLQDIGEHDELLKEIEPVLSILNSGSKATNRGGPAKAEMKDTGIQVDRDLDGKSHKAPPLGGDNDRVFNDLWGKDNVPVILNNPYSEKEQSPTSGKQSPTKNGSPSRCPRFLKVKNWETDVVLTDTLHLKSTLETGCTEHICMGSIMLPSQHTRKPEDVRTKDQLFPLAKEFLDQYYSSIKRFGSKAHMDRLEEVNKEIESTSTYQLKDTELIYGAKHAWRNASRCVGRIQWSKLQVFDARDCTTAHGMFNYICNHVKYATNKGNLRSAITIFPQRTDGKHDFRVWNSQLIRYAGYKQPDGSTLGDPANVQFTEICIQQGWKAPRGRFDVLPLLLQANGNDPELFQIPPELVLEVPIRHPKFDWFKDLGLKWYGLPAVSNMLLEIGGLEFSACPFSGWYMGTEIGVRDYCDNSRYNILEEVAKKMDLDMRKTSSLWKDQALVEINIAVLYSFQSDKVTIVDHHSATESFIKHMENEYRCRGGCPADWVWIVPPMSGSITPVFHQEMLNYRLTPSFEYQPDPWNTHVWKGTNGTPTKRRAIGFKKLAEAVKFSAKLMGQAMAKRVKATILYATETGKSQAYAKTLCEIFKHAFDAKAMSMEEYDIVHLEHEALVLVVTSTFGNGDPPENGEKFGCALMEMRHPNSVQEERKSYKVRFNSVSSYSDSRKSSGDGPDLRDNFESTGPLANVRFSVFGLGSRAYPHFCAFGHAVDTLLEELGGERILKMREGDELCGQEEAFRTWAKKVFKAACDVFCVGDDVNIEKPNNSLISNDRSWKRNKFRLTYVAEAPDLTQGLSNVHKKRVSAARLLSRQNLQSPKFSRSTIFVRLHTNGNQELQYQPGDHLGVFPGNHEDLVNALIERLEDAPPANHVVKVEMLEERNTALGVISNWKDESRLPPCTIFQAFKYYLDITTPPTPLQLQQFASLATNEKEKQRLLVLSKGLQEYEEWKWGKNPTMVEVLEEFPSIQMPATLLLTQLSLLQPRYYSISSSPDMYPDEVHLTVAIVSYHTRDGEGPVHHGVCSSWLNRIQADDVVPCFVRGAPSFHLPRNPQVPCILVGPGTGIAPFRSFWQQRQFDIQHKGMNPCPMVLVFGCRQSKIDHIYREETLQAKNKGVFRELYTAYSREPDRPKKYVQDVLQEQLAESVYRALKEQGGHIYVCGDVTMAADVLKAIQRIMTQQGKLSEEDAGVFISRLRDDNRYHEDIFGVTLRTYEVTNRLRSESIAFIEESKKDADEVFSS

Progesterone receptor = biological target: T3, Progesterone receptor (Bos taurus, UniProt Q690N0); assay: DRUGMATRIX: Progesterone radioligand binding (ligand: [3H] R-5020); type: tissue-based, Uterus; conditions: Not Active = under 50% inhibition at 10 µM
T3 sequence (Q690N0 whole entry): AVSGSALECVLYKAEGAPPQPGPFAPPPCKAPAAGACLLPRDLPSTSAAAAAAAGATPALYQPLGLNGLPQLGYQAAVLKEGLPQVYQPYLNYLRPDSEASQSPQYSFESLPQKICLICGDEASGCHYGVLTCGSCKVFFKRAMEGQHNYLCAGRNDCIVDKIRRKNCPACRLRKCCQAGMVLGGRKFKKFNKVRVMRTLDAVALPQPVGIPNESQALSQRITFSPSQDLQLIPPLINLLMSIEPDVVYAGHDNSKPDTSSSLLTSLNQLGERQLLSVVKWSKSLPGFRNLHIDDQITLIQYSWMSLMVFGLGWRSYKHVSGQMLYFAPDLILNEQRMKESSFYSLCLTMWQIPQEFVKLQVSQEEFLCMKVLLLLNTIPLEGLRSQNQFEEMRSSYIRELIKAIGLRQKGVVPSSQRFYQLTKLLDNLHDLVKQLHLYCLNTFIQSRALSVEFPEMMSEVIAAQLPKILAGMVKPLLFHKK

Caspase-1 = biological target: T4, Caspase-1 (Homo sapiens, UniProt P29466); design: species or system Escherichia coli;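 also: Caspase-1 enzyme inhibition assay with a peptide substrate; in other assays of this panel Not Active means under 50% inhibition at 10 µM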
T4 sequence (P29466 whole entry): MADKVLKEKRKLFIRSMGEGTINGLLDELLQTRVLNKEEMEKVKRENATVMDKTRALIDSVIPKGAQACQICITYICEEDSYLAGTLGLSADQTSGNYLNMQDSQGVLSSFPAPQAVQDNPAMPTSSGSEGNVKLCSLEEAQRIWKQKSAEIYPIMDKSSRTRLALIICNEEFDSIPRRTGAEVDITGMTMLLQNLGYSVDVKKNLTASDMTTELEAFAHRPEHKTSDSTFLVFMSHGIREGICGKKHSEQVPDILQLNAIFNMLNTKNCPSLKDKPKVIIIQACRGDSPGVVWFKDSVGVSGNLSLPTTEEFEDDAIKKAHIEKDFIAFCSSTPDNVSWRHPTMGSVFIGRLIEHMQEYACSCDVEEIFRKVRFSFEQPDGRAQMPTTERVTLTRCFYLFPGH

[2] = biological target: Voltage-gated inwardly rectifying potassium channel KCNH2 (Homo sapiens, UniProt Q12809); conditions: hek293; also: in other assays of this panel Not Active means under 50% inhibition at 10 µM
Chain of Voltage-gated inwardly rectifying potassium channel KCNH2 (Q12809 whole entry): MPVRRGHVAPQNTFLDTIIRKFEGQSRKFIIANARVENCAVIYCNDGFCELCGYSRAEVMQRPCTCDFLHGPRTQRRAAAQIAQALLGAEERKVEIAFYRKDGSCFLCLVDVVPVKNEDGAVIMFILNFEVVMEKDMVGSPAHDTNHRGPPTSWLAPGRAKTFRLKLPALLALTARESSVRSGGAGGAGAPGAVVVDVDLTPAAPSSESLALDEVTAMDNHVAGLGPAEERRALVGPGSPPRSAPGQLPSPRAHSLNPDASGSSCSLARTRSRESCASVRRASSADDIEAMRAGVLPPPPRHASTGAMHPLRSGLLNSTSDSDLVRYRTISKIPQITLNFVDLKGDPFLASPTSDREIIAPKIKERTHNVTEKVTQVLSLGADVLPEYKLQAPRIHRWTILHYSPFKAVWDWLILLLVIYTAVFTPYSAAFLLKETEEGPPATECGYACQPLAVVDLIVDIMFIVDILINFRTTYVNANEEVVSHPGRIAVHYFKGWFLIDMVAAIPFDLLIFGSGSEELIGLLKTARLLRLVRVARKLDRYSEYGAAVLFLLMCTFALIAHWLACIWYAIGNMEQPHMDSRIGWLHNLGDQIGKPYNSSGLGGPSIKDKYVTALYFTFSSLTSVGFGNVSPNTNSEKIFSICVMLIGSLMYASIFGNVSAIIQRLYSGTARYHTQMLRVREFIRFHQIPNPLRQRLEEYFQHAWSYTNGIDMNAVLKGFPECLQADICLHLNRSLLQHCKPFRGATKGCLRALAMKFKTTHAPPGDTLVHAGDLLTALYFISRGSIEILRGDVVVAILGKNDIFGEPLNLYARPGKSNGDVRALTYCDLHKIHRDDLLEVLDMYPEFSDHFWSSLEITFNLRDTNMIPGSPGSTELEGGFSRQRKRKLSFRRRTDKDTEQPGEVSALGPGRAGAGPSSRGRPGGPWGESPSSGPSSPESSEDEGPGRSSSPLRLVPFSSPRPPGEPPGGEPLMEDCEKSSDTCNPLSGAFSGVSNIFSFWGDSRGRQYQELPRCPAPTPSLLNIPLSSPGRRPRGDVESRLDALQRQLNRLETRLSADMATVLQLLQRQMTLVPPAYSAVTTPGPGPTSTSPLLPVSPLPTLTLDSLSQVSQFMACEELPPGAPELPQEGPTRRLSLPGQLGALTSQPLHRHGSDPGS

Chain of Beta-3 adrenergic receptor (P13945 whole entry): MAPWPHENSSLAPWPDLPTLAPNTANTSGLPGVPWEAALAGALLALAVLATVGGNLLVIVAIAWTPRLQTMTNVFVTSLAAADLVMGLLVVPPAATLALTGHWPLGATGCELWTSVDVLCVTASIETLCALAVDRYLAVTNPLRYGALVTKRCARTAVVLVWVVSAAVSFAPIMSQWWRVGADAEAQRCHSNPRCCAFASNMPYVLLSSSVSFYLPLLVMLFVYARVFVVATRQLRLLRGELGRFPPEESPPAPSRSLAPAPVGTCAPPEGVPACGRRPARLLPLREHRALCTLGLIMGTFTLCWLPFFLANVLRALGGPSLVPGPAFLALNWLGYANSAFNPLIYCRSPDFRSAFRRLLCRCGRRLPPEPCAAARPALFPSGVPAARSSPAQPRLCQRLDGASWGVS

CC1CCC(NC(=O)N(CCCl)N=O)CC1 (configuration not stated) [SEMUSTINE]
Not Active: IC50 [1] | IC50 (Calcitonin receptor) | IC50 (Thromboxane-A synthase) | IC50 (Nitric oxide synthase 1) | IC50 (Progesterone receptor) | IC50 (Caspase-1) | IC50 [2] | Ki [2]

O=C1C[C@@H]2OCC=C3CN4CC[C@]56c7ccccc7N1[C@H]5[C@H]2[C@H]3C[C@H]46 [STRYCHNINE]
Not Active: IC50 [1] | IC50 (Calcitonin receptor) | IC50 (Thromboxane-A synthase) | IC50 (Nitric oxide synthase 1) | IC50 (Progesterone receptor) | IC50 (Caspase-1) | IC50 [2] | Ki [2]

C[N+](C)(C)CCOC(=O)CCC(=O)OCC[N+](C)(C)C.[Cl-].[Cl-] [SUCCINYLCHOLINE CHLORIDE]
Not Active: IC50 [1] | IC50 (Calcitonin receptor) | IC50 (Thromboxane-A synthase) | IC50 (Nitric oxide synthase 1) | IC50 (Progesterone receptor) | IC50 (Caspase-1) | IC50 [2] | Ki [2]

Nc1ccc(S(=O)(=O)NC(=O)c2ccccc2)cc1 [SULFABENZAMIDE]
Not Active: IC50 [1] | IC50 (Calcitonin receptor) | IC50 (Thromboxane-A synthase) | IC50 (Nitric oxide synthase 1) | IC50 (Progesterone receptor) | IC50 (Caspase-1) | IC50 [2] | Ki [2]

O=c1[nH]c(=O)n(C2CCCO2)cc1F (configuration not stated) [TEGAFUR]
Not Active: IC50 [1] | IC50 (Calcitonin receptor) | IC50 (Thromboxane-A synthase) | IC50 (Nitric oxide synthase 1) | IC50 (Progesterone receptor) | IC50 (Caspase-1) | IC50 [2] | Ki [2]

CC(=N)S [THIOACETAMIDE]
Not Active: IC50 [1] | IC50 (Calcitonin receptor) | IC50 (Thromboxane-A synthase) | IC50 (Nitric oxide synthase 1) | IC50 (Progesterone receptor) | IC50 (Caspase-1) | IC50 [2] | Ki [2]

Cc1ccc(C(=O)c2ccc(CC(=O)O)n2C)cc1 [TOLMETIN]
Not Active: IC50 [1] | IC50 (Calcitonin receptor) | IC50 (Thromboxane-A synthase) | IC50 (Nitric oxide synthase 1) | IC50 (Progesterone receptor) | IC50 (Caspase-1) | IC50 [2] | Ki [2]

CC(=O)OCC(COC(C)=O)OC(C)=O [TRIACETIN]
Not Active: IC50 [1] | IC50 (Calcitonin receptor) | IC50 (Thromboxane-A synthase) | IC50 (Nitric oxide synthase 1) | IC50 (Progesterone receptor) | IC50 (Caspase-1) | IC50 [2] | Ki [2]

TRANSPLATIN
Not Active: IC50 [1] | Ki [1] | IC50 (Calcitonin receptor) | Ki (Calcitonin receptor) | IC50 (Thromboxane-A synthase) | Ki (Thromboxane-A synthase) | IC50 (Nitric oxide synthase 1) | Ki (Nitric oxide synthase 1) | IC50 (Progesterone receptor) | Ki (Progesterone receptor) | IC50 (Caspase-1) | Ki (Caspase-1) | IC50 [2] | Ki [2]

ZIRCONIUM(IV) CHLORIDE
Not Active: IC50 [1] | Ki [1] | IC50 (Calcitonin receptor) | Ki (Calcitonin receptor) | IC50 (Thromboxane-A synthase) | Ki (Thromboxane-A synthase) | IC50 (Nitric oxide synthase 1) | Ki (Nitric oxide synthase 1) | IC50 (Progesterone receptor) | Ki (Progesterone receptor) | IC50 (Caspase-1) | Ki (Caspase-1) | IC50 [2] | Ki [2]
